Measurements as given in PMC11242996, “IL-6 Inhibitory Compounds from the Aerial Parts of Piper attenuatum and Their Anticancer Activities on Ovarian Cancer Cell Lines” (Molecules, 2024).
Read-outs that look alike come from different tables or passages of the source.

Legend:
[1] = Cytotoxicity (CC50) in HEK-Blue IL-6 cells; assay type: cell-based; details: human, from extrapolated concentration-response curves
Description: (§1) The HEK-Blue™ IL-6 cells purchased from InvivoGen (San Diego, CA, USA) were used to seed 3 × 10^4 cells/200 µL in a 96-well plate. Each well was treated with different concentrations (0, 0.1, 1, 5, 10, 50, and 100 μM) of the isolated compounds. Recombinant human IL-6 (BioLegend, San Diego, CA, USA) was administered at 10 ng/mL. After 24 h, 20 μL of the cell suspension was added to 180 μL of QUANTI-Blue™ solution (InvivoGen, San Diego, CA, USA) in a fresh 96-well plate. After incubation at 37 °C for 2 h, the absorbance was measured spectrophotometrically (Epoch, BioTek Instruments, Winooski, VT, USA) at 635 nm. The EC50 values were calculated from a log([drug]) versus normalized response curve fit using GraphPad Prism version 5.00 for Windows (GraphPad Software, San Diego, CA, USA). The CC50 values were calculated from extrapolated concentration–response curves plotted with GraphPad Prism version 5.0 for Windows (GraphPad Software, San Diego, CA, USA) using inhibitory percentages versus the drug concentration logarithm.

[2] = system: cisplatin-resistant A2780 (A2780-cis) cells; test: CCK-8 cytotoxicity assay, A2780-cis; assay type: cell-based; details: Homo sapiens, A2780cis, CCK-8, 24 h
Source text: (§2) However, despite chemotherapy, many patients die of ovarian cancer recurrence. Inflammatory mediators such as IL-6 and several other cytokines influence drug resistance and recurrence in ovarian cancer.
(§3) The human epithelial ovarian cancer cell lines SKOV3 and A2780 were purchased from the Korean Cell Line Bank (KCLB, Seoul, Republic of Korea) and the European Collection of Cell Cultures (ECACC, Wiltshire, UK), respectively. The cisplatin-resistant A2780 (A2780-cis) and paclitaxel-resistant SKOV3 (SKOV3-TR) cells were obtained from Yonsei University (Institute of Women’s Life Medical Science, Division of Gynecological Oncology, Republic of Korea). SKOV3, SKOV3-TR, A2780, and A2780-cis cells were cultured in the RPMI-1640 medium (Welgene, Daegu, Republic of Korea). SKOV3-TR and A2780-cis cells were cultured in 100 nM paclitaxel (Cayman Chemical Company, Ann Arbor, MI, USA) and 1 µM cisplatin (Dong-A Pharmaceutical Co., Seoul, Republic of Korea), respectively. All the culture media were supplemented with 10% (v/v) fetal bovine serum and 1% penicillin or streptomycin (Gibco-BRL, Gaithersburg, MD, USA), and the cells were maintained at 37 °C in a humidified atmosphere of 5% CO2 and 95% air. Each culture medium was replaced with a fresh medium every 2–3 days.
(§4) A CCK-8 assay was performed to assess cytotoxicity. After seeding 5 × 10^5 cells/300 µL in 48-well plates, the cells were treated with the isolated compounds at 1, 5, 10, 20, 40, and 60 μM concentrations for 24 h. For the CCK-8 analysis, 30 μL of the CCK-8 solution (Dojindo, Kumamoto, Japan) was added to each well, allowed to react for 1 h, and then, the optical density value was measured at 450 nm using an ELISA microplate reader (Epoch, BioTek Instruments, Winooski, VT, USA). All the experiments were performed in triplicates. The IC50 values were calculated from a log([drug]) versus normalized response curve fit using GraphPad Prism version 5.00 for Windows (GraphPad Software, San Diego, CA, USA).

SKOV3 cells = test: CCK-8 cytotoxicity assay, SKOV3; assay type: cell-based, human; details: CCK-8, 24 h
Source text: as §2, §3, §4

[3] = system: IL-6 activity in HEK-Blue™ IL-6 cells; test: IL-6 inhibition bioassay using HEK-Blue IL-6 cells (STAT3-inducible SEAP reporter, QUANTI-Blue); assay type: cell-based, human; details: for inhibition of IL-6 activity: 10 ng/ml hIL-6, 24 h (Figure S22); for EC50: 10 ng/mL IL-6, 24 h, SEAP readout, read-out: EC50 (IL-6 inhibitory activity)
Description: We isolated eighteen compounds from P. attenuatum and assessed their inhibitory effects on IL-6 activity using the HEK-Blue™ IL-6 cell line. As the HEK-Blue™ IL-6 cells were transfected with a reporter gene expressing STAT3-inducible secreted embryonic alkaline phosphatase (SEAP), STAT3 was activated, and SEAP was produced when the cells were stimulated with IL-6. The extent of the inhibition of IL-6 downstream signaling by these compounds was assessed in vitro using bazedoxifene (gp130 inhibitor) as a positive control in the HEK-Blue™ IL-6 cells. Bazedoxifene is a newly developed third-generation indole-based estrogen receptor (ER) ligand used in the treatment of postmenopausal osteoporosis, also known as gp130 inhibitor.
The cells were treated with increasing concentrations of the eighteen isolated compounds (0, 0.1, 1, 5, 10, 50, and 100 μM) in the presence of 10 ng/mL IL-6.
as §1

[4] = system: paclitaxel-resistant SKOV3 (SKOV3-TR) cells; test: CCK-8 cytotoxicity assay, SKOV3-TR; assay type: cell-based; details: Homo sapiens, SKOV3TR, CCK-8, 24 h
Source text: as §2, §3, §4

A2780 cells = test: CCK-8 cytotoxicity assay, A2780; assay type: cell-based, human; details: CCK-8, 24 h
Source text: as §2, §3, §4

[5] = Homo sapiens, HEK-Blue IL-6, 24 h

SMILES	CC50 at 24 h [1] [µM]	IC50 [2] [µM]	IC50 (SKOV3 cells; Homo sapiens, SK-OV-3, 24 h) [µM]	inhibition of IL-6 activity [3]	EC50 [3, 5] [µM]	IC50 [4] [µM]	IC50 (A2780 cells; Homo sapiens, A2780, 24 h) [µM]	IC50 (SKOV3 cells) [µM]	IC50 (A2780 cells) [µM]	TI (therapeutic index, CC50/EC50) [3]	EC50 [3] [µM]	TI (therapeutic index, CC50/EC50) ([3]; listed as bazedoxifene)
COc1ccc(CC2=C(Cc3ccc4c(c3)OCO4)C(=O)NC2OC)cc1OC (stereo not drawn) [Compound 3, piperimide III]	28.7 ± 0.19	40.5 ± 1.11	15.76 ± 0.15	approximately 50%	3.52 ± 0.14	41 ± 1.18	17.5 ± 0.19	–	–	–	–	–
CC(=O)/C=C/[C@@]1(O)C(C)=CC(=O)CC1(C)C [Compound 11, (6S)-dehydrovomifoliol]	13.72 ± 0.11	14.4 ± 0.21	~10	approximately 50%	2.12 ± 0.04	19.9 ± 0.22	~10	10.7 ± 0.14	9.8 ± 0.11	–	–	–
CC1(C)C[C@@H](O)C[C@@]2(C)OC(=O)C=C12 [Compound 12, (-)-loliolide]	10.6 ± 0.1	16.6 ± 0.18	~10	approximately 50%	0.91 ± 0.04	6.44 ± 0.1	~10	10.7 ± 0.31	8.62 ± 0.1	–	–	–
COc1ccc(C[C@H]2COC(=O)[C@@H]2Cc2ccc(OC)c(OC)c2)cc1OC [Compound 4, (-)-dimethylmatairesinol]	22.6 ± 0.25	16.9 ± 0.19	20.04 ± 0.18	approximately 50%	4.06 ± 0.07	33 ± 0.5	20.6 ± 0.25	–	–	–	–	–
Cc1c(-c2ccc(O)cc2)n(Cc2ccc(OCCN3CCCCCC3)cc2)c2ccc(O)cc12 [Bazedoxifene, bazedoxifene, reference compound]	4.07 ± 0.35	33.8 ± 0.15	7.25 ± 0.62	–	1.91 ± 2.84	20.32 ± 0.2	8.2 ± 1.77	–	–	2.14 ± 0.78	1.91 ± 0.43	2.14
O=c1cc(-c2ccc(O)cc2)oc2c(C3OC(CO)C(O)C(O)C3OC3OCC(O)(CO)C3O)c(O)cc(O)c12 (stereo not drawn) [Compound 17, ficuflavoside]	32.5 ± 0.45	41 ± 0.63	26.6 ± 0.3	approximately 50%	1.31 ± 0.05	40.3 ± 0.85	21.8 ± 0.45	–	–	–	–	–
